# Assay results as given in patent publication US7811997B2, “Composition containing total triterpenoid sapogenins extracted from bamboo, and the preparation method and use thereof” (priority 2002, dated 2010).
# Read-outs that look alike come from different tables or passages of the source.
# Assays:
# A375 (human malanoma) = experiment: MTT proliferation inhibition, A375 cells; assay type: cell-based; conditions: Homo sapiens, read-out: Inhibitory rate (%)
# Excerpt: (§1) The Silica Gel Column Chromatography and Countercurrent Chromatography preparation techniques were used to obtain Friedelin monomer extracted from EZR2002 for the sake of evaluating its anti-tumor activity further. The purity of this monomer determined by GC-MS analysis was 90.5%.
# (§2) A375 (human malanoma), L929 (mouse lung epithelial tumor), Hela (human cervical tumor) and THP-1 (human macrophage tumor) cell lines were used for active filtration test in this experiment. Among these cell lines, A375, L929 and Hela were adherent cells while THP-1 was a kind of suspended cell.
# (§3) All cells were maintained in the RPMI-1640 culture medium supplemented with 10% fetal calf serum, penicillin (100 U/mL), streptomycin (100 μg/mL) and 0.2% NaHCO3. These supplements were dissolved in deionized water and 0.22 μm filtration membrane was used for filter sterilization. The fetal calf serum was inactivated 30 min at 56° C. prior to an experiment. Cells were cultured in a humidified incubator of 5% CO2 at 37° C.
# (§4) A375, L929 and Hela cells in logarithmic growth phases were seeded at a cell density of approximately 5×10^4 cells/mL in 96 pore plates (100 μL/well). Furthermore, THP-1 cell was seeded at a cell density of approximately 1×10^5 cells/mL because it was smaller than others. Samples were added in suspended cells after culturing 4 h and in adherent cells after culturing 12 h. Friedelin was dissolved in DMSO in advance and then in the culture medium with the ultrasonic treatment, where the final concentration of the solvent in the culture medium was <0.1% (v/v). Sample was added for 7.5, 15, 30, 60, 120, 240, 480 and 960 μmol/L. Each level had four parallel pores and a negative control. The cells were incubated for 24 and 48 h and then 15 μL/well MTT solvent (5 mg/mL) was added.
# (§5) The cells were incubated for 48 h, followed by centrifugation at 1500 rpm for 5 min. The supernatant was removed and 150 μL/well DMSO was added, followed by micro-vibrator shocking for 10 min and crystal dissolving completely. The absorbance (OD value) was measured by enzyme-labeled meter at 492 nm. Furthermore, the inhibitory rate of cell proliferation and the IC50 value of friedelin were counted by using Bliss method.
# (§6) The de-methyl-cantharidin was taken as the positive control and the inhibitory rate of A375, L929 and Hela cells were measured by adding de-methyl-cantharidin (120 μmol/L) for 24 and 48 h (Table 8). Furthermore, the corresponding data of Friedelin were counted.
# [1] = system: L929 (mouse lung epithelial tumor); experiment: MTT proliferation inhibition, L929 cells; assay type: cell-based; conditions: Mus musculus, read-out: Inhibitory rate (%)
# Excerpt: as §1, §2, §3, §4, §5, §6
# [2] = system: Hela (human cervical tumor); experiment: MTT proliferation inhibition, Hela cells; assay type: cell-based; conditions: Homo sapiens, HeLa, read-out: Inhibitory rate (%)
# Excerpt: as §1, §2, §3, §4, §5, §6
# [3] = compounds from bamboo shoot sheath; Sakai 1999; cited from earlier work
# [4] = system: P388 mouse leukemia cells; experiment: Growth inhibition of P388 cells (MTT reduction method, 48 h); assay type: cell-based
# Protocol: […] growth […] The effect time was 48 h and 72 h, respectively.
# (§7) 10^−5, 10^−6 and 10^−7 mol/L were determined as three critical levels. Invalid, weak effect and strong effect were determined as three evaluation indices.
# [5] = system: A549 human lung adenocarcinoma cells; experiment: Growth inhibition of A549 cells (SRB protein coloring method, 72 h); assay type: cell-based
# Protocol: Sulforhodamine B (SRB) protein staining method and microculture tetrozolium (MTT) reduction method were used to measure the growth inhibitory effects of tumor cells by EZR2002 with the test objects of P388 mouse leukemia cells and A549 human lung adenocarcinoma cells, respectively. The effect time was 48 h and 72 h, respectively.
# as §7
smiles,measurement,setting,value
"O=C1OC(=O)C2C3CCC(O3)C12 (centres unmarked) [De-methyl-cantharidin, de-methyl-cantharidin, reference compound]",inhibition at 120 µM,"A375 (human malanoma); A-375, 24 h",38.6%
same,inhibition at 120 µM,"A375 (human malanoma); A-375, 48 h",50.4%
same,inhibition at 120 µM,"[1]; L929, 24 h",40.5%
same,inhibition at 120 µM,"[1]; L929, 48 h",34.4%
same,inhibition at 120 µM,[2]; 24 h,34.1%
same,inhibition at 120 µM,[2]; 48 h,43.7%
COc1cc(-c2cc(=O)c3c(O)cc(O)cc3o2)cc(OC)c1O [tricin],anti-oxidative activity relative to that of α-tocopherol,[3],~10%
CC[C@]1(O)C[C@H]2CN(CCc3c([nH]c4ccccc34)[C@@](C(=O)OC)(c3cc4c(cc3OC)N(C=O)[C@H]3[C@@](O)(C(=O)OC)[C@H](OC(C)=O)[C@]5(CC)C=CCN6CC[C@]43[C@@H]65)C2)C1 [Vincristin],Evaluation,[4],Strong
same,Inhibition rate (%),[4]; sample level 10^−4 mol/L,93.1%
same,Inhibition rate (%),[4]; sample level 10^−5 mol/L,94.3%
same,Inhibition rate (%),[4]; sample level 10^−6 mol/L,94.8%
same,Inhibition rate (%),[4]; sample level 10^−7 mol/L,94.7%
same,Inhibition rate (%),[4]; sample level 10^−8 mol/L,93.2%
same,Evaluation,[5],Weak
same,Inhibition rate (%),[5]; sample level 10^−4 mol/L,71.3%
same,Inhibition rate (%),[5]; sample level 10^−5 mol/L,71.6%
same,Inhibition rate (%),[5]; sample level 10^−6 mol/L,66.5%
same,Inhibition rate (%),[5]; sample level 10^−7 mol/L,44.3%
same,Inhibition rate (%),[5]; sample level 10^−8 mol/L,9.6%
O=C1c2c(O)cc(O)cc2O[C@H](c2ccc(O)c(O)c2)[C@H]1O [taxifolin],anti-oxidative activity relative to that of α-tocopherol,[3],~1%
